Assay results taken from patent publication US7977371B2, “Pyrrole derivative having ureido group and aminocarbonyl group as substituents” (Santen Pharmaceutical Co., Ltd., priority 2007, dated 2011).

Tests used:
[1] = tested on: choroidal neovascularization induced by krypton laser irradiation; assay: Evaluation test for inhibitory effect on choroidal neovascularization (rat model induced by krypton laser irradiation); type: in vivo, Brown Norway rat; conditions: po, 168 h, 30 mg/kg/day orally once a day for 7 days (day 0 to day 6), fluorescein fundus angiography on day 7, versus vehicle administration group, average of 5 to 8 eyes of 3 to 4 rats, read-out: Ratio of incidence of neovascularization (% of control)
Source text: 2. Evaluation Test for Inhibitory Effect on Choroidal Neovascularization
As one of the methods widely used for evaluating an inhibitory effect on choroidal neovascularization, a rat model of choroidal neovascularization induced by krypton laser irradiation has been reported in Graefe's Arch. Cli. Exp. Ophthalmol., 235, 313-319 (1997). According to the method described in this document, a ratio of incidence of choroidal neovascularization of a present compound administration group to that of a vehicle administration group was calculated using the rat model of choroidal neovascularization, and an inhibitory effect of the present compound on choroidal neovascularization was evaluated using the calculated value as an index. Specific test methods will be described below.
(Preparation of Administration Liquid of Test Compound)
A test compound was suspended in a 1% aqueous methyl cellulose solution, whereby a 6 mg/mL test compound suspension was prepared.
(Preparation of Rat Model of Choroidal Neovascularization Induced by Krypton Laser)
1) To a Brown Norway rat (male, 7 to 8 weeks of age), a mixed solution of a 5% ketamine hydrochloride injection solution and a 2% xylazine hydrochloride injection solution (7:1) was intramuscularly administered at a dose of 1 mL/kg to effect systemic anesthesia.
2) After a 0.5% tropicamide-0.5% phenylephrine hydrochloride eye drop was instilled into the eyes to cause mydriasis, photocoagulation was performed using a krypton laser photocoagulation apparatus (MC-7000, manufactured by NIDEK Co., Ltd.). The krypton laser irradiation was performed at eight spots per eye sparsely by focusing on the retinal deep layer avoiding large retinal vessels in a posterior section of ocular fundus. The photocoagulation conditions were set such that the spot size was 100 μm, the output was 100 mW and the coagulation time was 0.1 sec.
3) After the photocoagulation, the ocular fundus photography was performed (PRO III, manufactured by Kowa Company, Ltd.) to confirm the photocoagulation (krypton laser irradiation) sites.
(Administration Method of Test Compound)
1) The test compound suspension (30 mg/kg/day) was orally administered once a day for 7 consecutive days from the day of krypton laser irradiation (day 0) until day 6.
2) A 1% aqueous methyl cellulose solution was administered in the same manner as in 1) in place of the test compound suspension, and the obtained result was designated as the vehicle administration group.
1). On day 7 after the photocoagulation, 0.1 mL of a 10% aqueous fluorescein solution was injected into the tail vein, and fluorescein fundus angiography was performed (PRO III, manufactured by Kowa Company, Ltd.).
2) In the fluorescein fundus angiography, a spot where fluorescence leakage was not observed was determined to be negative and a spot where fluorescence leakage was observed was determined to be positive. With respect to photocoagulation sites where a little fluorescence leakage was observed, in the case where there were two such photocoagulation sites, it was determined to be positive.
(Calculation Formula of Incidence of Neovascularization)
An incidence (%) of neovascularization of each administration group and a ratio of incidence of neovascularization of the test compound administration group to that of the vehicle administration group were calculated from the following formulae, respectively. Incidence of Neovascularization of Each Administration Group (%)=[(Number of Positive Photocoagulation. Sites)/(Number of Total Photocoagulation Sites)]×100 Ratio of Incidence of Neovascularization of Test Compound Administration Group to that of Vehicle Administration Group (% of Control)=[(Incidence of Neovascularization of Test Compound Administration Group)/(Incidence of Neovascularization of Vehicle Administration Group)]×100 (Evaluation Results)

[2] = tested on: TNF-α-induced IL-6 production in normal human skin fibroblast-derived CCD-1059Sk cells; assay: Test for measurement of inhibitory activity against TNF-α-induced IL-6 production; type: cell-based; conditions: test compound at 10 μM, TNF-α stimulation 16 hours, inhibition ratio of 100% or more is indicated as 100%; for inhibition at 10 µM: Homo sapiens
Protocol: 1. Test for Measurement of Inhibitory Activity Against IL-6 Production
An inhibitory effect on TNF-α-induced IL-6 production in normal human skin fibroblast-derived CCD-1059Sk cells (ATCC No. CRL-2072) was evaluated. The amount of IL-6 was determined by the homogeneous time-resolved fluorescence method using HTRF™ Human IL-6 kit (Cat. No. 62IL6PEB, manufactured by CIS-Bio international, Inc.). Specific test methods will be described below.
(Preparation of Test Compound Solution)
After a test compound was dissolved in dimethyl sulfoxide, the resulting solution was diluted with D-MEM medium containing 0.1% heat-inactivated fetal bovine serum, 0.1 mM MEM non-essential amino acid solution, 100 U/mL penicillin and 100 μg/mL streptomycin (hereinafter referred to as “medium”), whereby a 40 μM test compound solution was prepared.
(Test Method and Measurement Method)
1) CCD-1059Sk cells prepared at a density of 3×10^5 cells/mL were inoculated in a 384-well plate in an amount of 10 μL per well such that the cell density was 3×10^3 cells/well.
2). After the plate was incubated at 37° C. for several hours in a CO2 incubator, 5 μL of the test compound was added to each well.
3) After the plate was incubated at 37° C. for 1 hour in a CO2 incubator, 5 μL of a 40 ng/mL TNF-α solution was added to each well.
4) After the plate was incubated at 37° C. for 16 hours in a CO2 incubator, 10 μL of a cryptate-labeled anti-IL-6 antibody and an XL665-labeled anti-IL-6 antibody containing potassium fluoride was added to each well.
5) After the plate was incubated at room temperature for several hours, a fluorescence intensity ratio (665 nm/620 nm) was determined for each well using a multimode plate reader Analyse™ HT (manufactured by Molecular Device Corporation) and Criterion Host software version 2.00 (manufactured by Molecular Device Corporation), and then, the amount of IL-6 was calculated.
6) The same procedures as in the above 1) to 5) were performed except that 0.4% dimethyl sulfoxide was added in place of the test compound, and the obtained result was designated as the control.
7) The same procedures as in the above 1) to 5) were performed except that 0.4% dimethyl sulfoxide and the medium were added in place of the test compound and the TNF-α solution, respectively, and the obtained result was designated as the background.
(Calculation Formula of IL-6 Production Inhibition Ratio)
An IL-6 production inhibition ratio (%) was calculated from the following formula. IL-6 Production Inhibition Ratio (%)=100×{1−[(Amount of IL-6 for Test Compound)−(Amount of IL-6 for Background)/(Amount of IL-6 for Control)−(Amount of IL-6 for Background)]} (Evaluation Results)

COc1ccccc1-c1cc(C(N)=O)c(NC(N)=O)[nH]1 [Compound 1-9, 2-Aminocarbonylamino-5-(2-methoxyphenyl) pyrrole-3-carboxamide]
response vs control in vivo at 30 mg/kg [1]: 40%
inhibition at 10 µM ([2]; CCD-1059Sk, 16 h): 100%

CCCOc1ccccc1-c1cc(C(N)=O)c(NC(N)=O)[nH]1 [Compound 4-4, 2-Aminocarbonylamino-5-(2-propyloxyphenyl) pyrrole-3-carboxamide]
response vs control in vivo at 30 mg/kg [1]: 71%
inhibition at 10 µM ([2]; CCD-1059Sk, 16 h): 90%

N#CCOc1ccc(Cl)cc1-c1cc(C(N)=O)c(NC(N)=O)[nH]1 [Compound 4-43, 2-Aminocarbonylamino-5-(5-chloro-2-cyanomethyloxyphenyl)pyrrole-3-carboxamide]
response vs control in vivo at 30 mg/kg [1]: 57%
inhibition at 10 µM ([2]; CCD-1059Sk, 16 h): 99%

NC(=O)Nc1[nH]c(-c2ccc(F)cc2)cc1C(N)=O [Compound 1-8, 2-Aminocarbonylamino-5-(4-fluorophenyl) pyrrole-3-carboxamide]
response vs control in vivo at 30 mg/kg [1]: 31%
inhibition at 10 µM ([2]; CCD-1059Sk, 16 h): 93%

NC(=O)Nc1[nH]c(-c2cccc(Cl)c2)cc1C(N)=O [Compound 1-25, 2-Aminocarbonylamino-5-(3-chlorophenyl) pyrrole-3-carboxamide]
response vs control in vivo at 30 mg/kg [1]: 52%
inhibition at 10 µM ([2]; CCD-1059Sk, 16 h): 99%

CCCOc1ccc(F)cc1-c1cc(C(N)=O)c(NC(N)=O)[nH]1 [Compound 4-34, 2-Aminocarbonylamino-5-(5-fluoro-2-propyloxyphenyl) pyrrole-3-carboxamide]
response vs control in vivo at 30 mg/kg [1]: 75%
inhibition at 10 µM ([2]; CCD-1059Sk, 16 h): 100%

CCCOc1ccc(Cl)cc1-c1cc(C(N)=O)c(NC(N)=O)[nH]1 [Compound 4-37, 2-Aminocarbonylamino-5-(5-chloro-2-propyloxyphenyl)pyrrole-3-carboxamide]
response vs control in vivo at 30 mg/kg [1]: 69%
inhibition at 10 µM ([2]; CCD-1059Sk, 16 h): 97%

NC(=O)Nc1[nH]c(-c2cc(F)ccc2OCCO)cc1C(N)=O [Compound 4-54, 2-Aminocarbonylamino-5-[5-fluoro-2-(2-hydroxyethyloxy)phenyl]pyrrole-3-carboxamide]
response vs control in vivo at 30 mg/kg [1]: 86%
inhibition at 10 µM ([2]; CCD-1059Sk, 16 h): 96%

C=CCOc1ccc(Cl)cc1-c1cc(C(N)=O)c(NC(N)=O)[nH]1 [Compound 4-49, 5-(2-Allyloxy-5-chlorophenyl)-2-(aminocarbonylamino)pyrrole-3-carboxamide]
inhibition at 10 µM ([2]; CCD-1059Sk, 16 h): 100%

CNCc1c(-c2cccc(Cl)c2)[nH]c(NC(N)=O)c1C(N)=O [Compound 19-1, 2-Aminocarbonylamino-5-(3-chlorophenyl)-4-(methylaminomethyl)pyrrole-3-carboxamide]
inhibition at 10 µM ([2]; CCD-1059Sk, 16 h): 97%

COc1ccc(Cl)cc1-c1cc(C(N)=O)c(NC(N)=O)[nH]1 [Compound 1-22, 2-Aminocarbonylamino-5-(5-chloro-2-methoxyphenyl)pyrrole-3-carboxamide]
IL-6 production inhibition ratio [2]: 100%

CCCNC(=O)Oc1ccccc1-c1cc(C(N)=O)c(NC(N)=O)[nH]1 [Compound 6-1, 2-Aminocarbonylamino-5-(2-propylaminocarbonyloxyphenyl)pyrrole-3-carboxamide]
inhibition at 10 µM [2]: 99%

NC(=O)Nc1[nH]c(-c2ccccc2OCCN2CCCCC2)cc1C(N)=O [Compound 4-27, 2-Aminocarbonylamino-5-[2-[2-(piperidin-1-yl)ethyloxyl]phenyl]pyrrole-3-carboxamide]
inhibition at 10 µM ([2]; CCD-1059Sk, 16 h): 99%

NC(=O)Nc1[nH]c(-c2ccc(Br)cc2)cc1C(N)=O [Compound 1-1, 2-Aminocarbonylamino-5-(4-bromophenyl)pyrrole-3-carboxamide]
inhibition at 10 µM ([2]; CCD-1059Sk, 16 h): 94%

NC(=O)Nc1[nH]c(-c2ccccc2OCCN2CCCC2)cc1C(N)=O [Compound 8-4]
inhibition at 10 µM ([2]; CCD-1059Sk, 16 h): 99%

NC(=O)Nc1[nH]c(-c2cc(F)ccc2OCCN2CCCC2)cc1C(N)=O [Compound 8-12]
inhibition at 10 µM ([2]; CCD-1059Sk, 16 h): 100%

NC(=O)Nc1[nH]c(-c2cc(F)ccc2F)cc1C(N)=O [Compound 1-53, 2-Aminocarbonylamino-5-(2,5-difluorophenyl) pyrrole-3-carboxamide]
inhibition at 10 µM ([2]; CCD-1059Sk, 16 h): 94%

CN1CCCC1CCOc1ccccc1-c1cc(C(N)=O)c(NC(N)=O)[nH]1 (stereo not drawn) [Compound 4-32, 2-Aminocarbonylamino-5-[2-[2-(1-methylpyrrolidin-2-yl)ethyloxy]phenyl]pyrrole-3-carboxamide]
inhibition at 10 µM ([2]; CCD-1059Sk, 16 h): 99%

N#CCOc1cccc(-c2cc(C(N)=O)c(NC(N)=O)[nH]2)c1 [Compound 4-9, 2-Aminocarbonylamino-5-(3-cyanomethyloxyphenyl) pyrrole-3-carboxamide]
inhibition at 10 µM ([2]; CCD-1059Sk, 16 h): 89%

NC(=O)Nc1[nH]c(-c2ccccc2C(F)(F)F)cc1C(N)=O [Compound 1-13, 2-Aminocarbonylamino-5-(2-trifluoromethylphenyl)pyrrole-3-carboxamide]
inhibition at 10 µM ([2]; CCD-1059Sk, 16 h): 93%

NC(=O)Nc1[nH]c(-c2ccccc2OCc2cccnc2)cc1C(N)=O [Compound 4-15, 2-Aminocarbonylamino-5-[2-(pyridin-3-ylmethyloxy)phenyl]pyrrole-3-carboxamide]
inhibition at 10 µM ([2]; CCD-1059Sk, 16 h): 91%

NC(=O)Nc1[nH]c(-c2ccc(F)c(Cl)c2)cc1C(N)=O [Compound 1-36, 2-Aminocarbonylamino-5-(3-chloro-4-fluorophenyl)pyrrole-3-carboxamide]
inhibition at 10 µM ([2]; CCD-1059Sk, 16 h): 100%

NC(=O)Nc1[nH]c(-c2ccccc2F)cc1C(N)=O [Compound 1-45, 2-Aminocarbonylamino-5-(2-fluorophenyl) pyrrole-3-carboxamide]
inhibition at 10 µM ([2]; CCD-1059Sk, 16 h): 95%

CSc1cccc(-c2cc(C(N)=O)c(NC(N)=O)[nH]2)c1 [Compound 1-43, 2-Aminocarbonylamino-5-(3-methylthiophenyl) pyrrole-3-carboxamide]
inhibition at 10 µM ([2]; CCD-1059Sk, 16 h): 88%

CN(CCOc1ccc(F)cc1-c1cc(C(N)=O)c(NC(N)=O)[nH]1)C1CCCCC1 [Compound 8-22]
inhibition at 10 µM ([2]; CCD-1059Sk, 16 h): 98%
